{"source": "patent US5929236A", "about": "“2-substituted morpholine and thiomorpholine derivatives as GABA-B antagonists” (Schering Corporation, priority 1995, dated 1999)", "key": {"[1]": {"test_system": "seizure in rats induced by PTZ", "assay": "Prevention of seizure in rats induced by PTZ", "format": "in vivo, rat", "conditions": "PTZ model", "procedure": "Animal Models for Absence Seizures\nA. Snead, Eur. J. Pharmacol., 213, 343-349 (1992), teaches a pharmacological model for testing the effectiveness of GABAB antagonists in preventing seizures induced by intra-peritoneal (ip) administration of either γ-butyrolactone (GBL) or pentylenetetrazole (PTZ) to rats. The animal is treated with the test compound, then monitored after being subjected to a dose of either GBL or PTZ sufficient to induce seizures."}, "[2]": {"test_system": "seizure in lethargic (lh/lh) mice", "assay": "Prevention of seizure in lethargic (lh/lh) mice", "format": "in vivo", "description": "B. Hosford, et al., Science, 257, 398-401 (Jul. 17, 1992), teaches a pharmacological model for testing the effectiveness of GABAB antagonists as anticonvulsants for the treatment of absence seizures by administering the compound to be tested to lethargic (lh/lh) mice, a mutant strain with spontaneous seizures."}, "[3]": {"target": "prejunctional GABAB receptors (Cavia porcellus, UniProt A0A286X9P6)", "sequence (A0A286X9P6 30-844)": "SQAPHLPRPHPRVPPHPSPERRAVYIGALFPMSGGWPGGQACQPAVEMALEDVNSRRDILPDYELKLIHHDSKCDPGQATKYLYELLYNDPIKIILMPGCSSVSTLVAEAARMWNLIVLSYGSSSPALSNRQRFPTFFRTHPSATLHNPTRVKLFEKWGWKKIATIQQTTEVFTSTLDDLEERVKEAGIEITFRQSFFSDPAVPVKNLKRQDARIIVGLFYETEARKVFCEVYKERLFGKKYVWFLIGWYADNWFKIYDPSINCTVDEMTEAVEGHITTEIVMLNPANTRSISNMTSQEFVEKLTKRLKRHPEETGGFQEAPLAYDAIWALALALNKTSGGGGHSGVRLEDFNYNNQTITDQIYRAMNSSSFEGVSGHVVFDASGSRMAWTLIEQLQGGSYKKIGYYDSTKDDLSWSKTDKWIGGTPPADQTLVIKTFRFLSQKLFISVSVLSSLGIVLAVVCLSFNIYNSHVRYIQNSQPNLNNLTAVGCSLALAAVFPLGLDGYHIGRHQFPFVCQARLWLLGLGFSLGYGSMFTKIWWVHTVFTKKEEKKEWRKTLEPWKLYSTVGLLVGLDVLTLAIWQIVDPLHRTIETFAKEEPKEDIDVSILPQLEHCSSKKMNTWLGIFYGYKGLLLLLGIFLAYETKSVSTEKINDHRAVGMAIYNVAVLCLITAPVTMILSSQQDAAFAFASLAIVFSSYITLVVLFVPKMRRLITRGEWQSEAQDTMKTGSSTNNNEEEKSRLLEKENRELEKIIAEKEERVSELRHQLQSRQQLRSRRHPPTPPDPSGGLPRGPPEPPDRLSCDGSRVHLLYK", "sequence (H0V741 1-820 partner)": "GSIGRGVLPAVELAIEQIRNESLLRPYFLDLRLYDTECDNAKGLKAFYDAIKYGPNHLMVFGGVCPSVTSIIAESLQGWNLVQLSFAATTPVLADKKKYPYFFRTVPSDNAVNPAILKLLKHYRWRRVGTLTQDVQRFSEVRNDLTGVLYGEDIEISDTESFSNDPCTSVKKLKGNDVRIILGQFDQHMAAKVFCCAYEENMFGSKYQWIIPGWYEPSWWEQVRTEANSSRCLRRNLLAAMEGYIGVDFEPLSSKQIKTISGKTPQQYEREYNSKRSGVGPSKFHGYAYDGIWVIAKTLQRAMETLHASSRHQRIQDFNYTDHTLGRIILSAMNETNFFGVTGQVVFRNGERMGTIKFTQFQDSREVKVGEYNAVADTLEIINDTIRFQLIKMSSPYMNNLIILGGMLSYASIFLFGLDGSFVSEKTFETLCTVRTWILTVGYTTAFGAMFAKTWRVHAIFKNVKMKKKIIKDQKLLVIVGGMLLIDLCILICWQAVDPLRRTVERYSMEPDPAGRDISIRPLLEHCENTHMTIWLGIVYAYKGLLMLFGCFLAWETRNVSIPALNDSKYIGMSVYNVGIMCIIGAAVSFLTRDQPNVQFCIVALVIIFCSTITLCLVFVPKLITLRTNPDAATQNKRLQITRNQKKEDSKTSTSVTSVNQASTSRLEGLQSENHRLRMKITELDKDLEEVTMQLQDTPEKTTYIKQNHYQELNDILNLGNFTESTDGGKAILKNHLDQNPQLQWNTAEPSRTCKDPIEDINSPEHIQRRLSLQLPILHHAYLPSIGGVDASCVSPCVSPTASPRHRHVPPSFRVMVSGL", "assay": "In Vitro Assay (guinea pig trachea, reversal of baclofen inhibition of EFS-induced contractions)", "format": "cell-based, guinea pig (male Hartley)", "conditions": "30 μmol/L baclofen", "procedure": "Male Hartley guinea pigs (450-650 g) are sacrificed by stunning and the trachea removed proximal to the carina and cut into 5 mm segments. The segments are attached to isometric force displacement transducers (Model FT03: Grass Instruments) and suspended in 15 mL organ baths filled with low Ca^2+ (0.6 mmol/L) Tyrode's buffer solution (pH 7.4) supplemented with 5.6 mmol/L glucose, 30 μmol/L choline and 2 μmol/L indomethacin. The solution is bubbled with a mixture of 95% O2 +5% CO2 and maintained at 37° C. The tracheal segments are allowed to equilibrate for 90 minutes under a resting tension of 0.5 g.\nPlatinum electrodes are placed on either side of the trachea and electrical field stimulation (EFS) (20 V, 8 Hz, 0.5 ms pulse for 5 s) was generated each minute from an electrical stimulator (Model S-88: Grass Instruments) and delivered to the electrodes through a stimulus distributor (Buxco Electronics). The stimulation parameters are chosen as appropriate for producing cholinergic contractions of the trachea that are sensitive to the inhibitory effects of compounds acting at prejunctional GABAB receptors. Contractile responses were recorded on a polygraph (Harvard Apparatus). The compound to be tested is added to the bath 10 min. before addition of 30 μmol/L baclofen. The effect of baclofen treatment in the absence or in the presence of the compound to be tested is expressed as a percent inhibition of EFS-induced contractions."}}, "data": [{"compound": "CC1(C)COC(CC(=O)O)CN1", "note": "(single isomer, unassigned) [Example 6A]", "values": [{"measurement": "SWD duration", "setting": "[1]; 0.18 mg/kg, 20 min", "result": 250, "unit": "s"}, {"measurement": "SWD duration", "setting": "[1]; 0.18 mg/kg, 40 min", "result": 235, "unit": "s"}, {"measurement": "SWD duration", "setting": "[1]; 0.18 mg/kg, 60 min", "result": 140, "unit": "s"}, {"measurement": "SWD duration", "setting": "[1]; 0.18 mg/kg, 80 min", "result": 60, "unit": "s"}, {"measurement": "SWD duration", "setting": "[1]; 0.18 mg/kg, 100 min", "result": 15, "unit": "s"}, {"measurement": "SWD duration", "setting": "[1]; 0.18 mg/kg, 120 min", "result": 0, "unit": "s"}, {"measurement": "SWD duration", "setting": "[1]; 0.375 mg/kg, 20 min", "result": 150, "unit": "s"}, {"measurement": "SWD duration", "setting": "[1]; 0.375 mg/kg, 40 min", "result": 140, "unit": "s"}, {"measurement": "SWD duration", "setting": "[1]; 0.375 mg/kg, 60 min", "result": 55, "unit": "s"}, {"measurement": "SWD duration", "setting": "[1]; 0.375 mg/kg, 80 min", "result": 25, "unit": "s"}, {"measurement": "SWD duration", "setting": "[1]; 0.375 mg/kg, 100 min", "result": 0, "unit": "s"}, {"measurement": "SWD duration", "setting": "[1]; 0.375 mg/kg, 120 min", "result": 0, "unit": "s"}, {"measurement": "SWD duration", "setting": "[1]; 0.75 mg/kg, 20 min", "result": 90, "unit": "s"}, {"measurement": "SWD duration", "setting": "[1]; 0.75 mg/kg, 40 min", "result": 70, "unit": "s"}, {"measurement": "SWD duration", "setting": "[1]; 0.75 mg/kg, 60 min", "result": 45, "unit": "s"}, {"measurement": "SWD duration", "setting": "[1]; 0.75 mg/kg, 80 min", "result": 0, "unit": "s"}, {"measurement": "SWD duration", "setting": "[1]; 0.75 mg/kg, 100 min", "result": 0, "unit": "s"}, {"measurement": "SWD duration", "setting": "[1]; 0.75 mg/kg, 120 min", "result": 0, "unit": "s"}, {"measurement": "SWD duration", "setting": "[1]; 1.5 mg/kg, 20 min", "result": 0, "unit": "s"}, {"measurement": "SWD duration", "setting": "[1]; 1.5 mg/kg, 40 min", "result": 0, "unit": "s"}, {"measurement": "SWD duration", "setting": "[1]; 1.5 mg/kg, 60 min", "result": 0, "unit": "s"}, {"measurement": "SWD duration", "setting": "[1]; 1.5 mg/kg, 80 min", "result": 0, "unit": "s"}, {"measurement": "SWD duration", "setting": "[1]; 1.5 mg/kg, 100 min", "result": 0, "unit": "s"}, {"measurement": "SWD duration", "setting": "[1]; 1.5 mg/kg, 120 min", "result": 0, "unit": "s"}, {"measurement": "Seizures (% vehicle) in 120 min.", "setting": "[2]; 1.0 mg/kg ip", "result": 85, "unit": "%"}, {"measurement": "Seizures (% vehicle) in 120 min.", "setting": "[2]; 3.0 mg/kg ip", "result": 60, "unit": "%"}, {"measurement": "Seizures (% vehicle) in 120 min.", "setting": "[2]; 10 mg/kg ip", "result": 15, "unit": "%"}, {"measurement": "Seizures (% vehicle) in 120 min.", "setting": "[2]; 30 mg/kg ip", "result": 5, "unit": "%"}, {"measurement": "inhibition at 30 µM", "setting": "[3]; 30 μM", "result": 90, "unit": "%"}, {"measurement": "IC30", "setting": "[3]; guinea pig trachea", "result": 1.1, "unit": "µM"}, {"measurement": "In Vitro % inhibition", "setting": "[3]; 100 μM", "result": 94, "unit": "%"}]}]}
